{"source": "patent US9624277B2", "about": "“Anticancer agent” (AMRITA THERAPEUTICS LIMITED, priority 2010, dated 2017)", "molecules": {"B1": {"name": "MPT-63 (protein, listed as Mycobacterium bovis)", "chain": "MKLTTMIKTAVAVVAMAAIATFAEPVALAAYPITGKLGSELTMTDTVGQVVLGWKVSDLKSSTAVIPGYPVAGQVWEATATVNAIRGSVTPAVSQFNARTADGINYRVLWQAAGPDTISGATIPQGEQSTGKIYFDVTGPSPTIVAMNNGMQDLLIWEP"}}, "key": {"[1]": {"test_system": "UM-UC-3 bladder cancer cell line", "assay": "MTT cytotoxicity assay, UM-UC-3 bladder carcinoma cell line", "assay_type": "cell-based, human", "conditions": "UM-UC-3 cells, 1.0 and 10 μM, 24 h", "text": "ATCC: UM-UC-3: Human cell line with epithelial-like characteristics established from a high grade invasive urinary bladder carcinoma of a patient. This is a hypertriploid human cell line and IFN non responsive. This cell line is tumorigenic in nature."}, "[2]": {"test_system": "U87 human glioblastoma", "conditions": "U87 cells (brain cancer), 24 h, MTT; MPT-63 at 1, 5 and 10 μM"}, "[3]": {"test_system": "HepG2 liver cancer", "conditions": "HepG2 cells (liver cancer), 24 h, MTT; MPT-63 at 1, 5 and 10 μM"}, "[4]": {"test_system": "MDA-MB-231 breast cancer", "conditions": "MDA-MB-231 cells (breast cancer), 24 h, MTT; MPT-63 at 1, 5 and 10 μM"}, "[5]": {"test_system": "HCT 116 colorectal cancer cell line", "assay_type": "cell-based, human", "conditions": "HCT 116 cells, compared with MB30, MTT", "text": "ATCC HCT 116: Human cell line with epithelial-like characteristics established from colorectal carcinoma from an adult patient. The cells are positive for keratin by immunoperoxidase staining. HCT 116 cells are positive for transforming growth factor beta 1 (TGF beta 1) and beta 2 (TGF beta 2) expression. This line has a mutation in codon 13 of the ras protooncogene, and can be used as a positive control for PCR assays of mutation in this codon."}, "[6]": {"test_system": "SiHa cervix cancer cell line", "conditions": "SiHa cells, compared with MB30, MTT", "experimental": "(§1) The viability of the cells was estimated by using MTT assay on the basis of formazan formed, which was detected spectrophotometrically by optical density at 570 nm at 24 h, 48 h and 72 h [Bar-mean±S.E.].\n(§2) MTT [3-(4, 5-dimethylthiazol-2-yl)-2,5-diphenyl tetrazolium bromide] assay was carried out for measurement of the cytotoxicity of different anticancer peptides. The water soluble tetrazolium salt, MTT [3-(4,5-dimethylthiazol-2-yl)-2,5-diphenyl tetrazolium bromide] is metabolized to the water insoluble formazan by intact mitochondrial dehydrogenases. The formazan is then solubilized by adding 2-propanol+40 mM HCl for 4 h incubation. […] The viability of the cells was estimated on the basis of formazan formed, which was detected spectrophotometrically by optical density at 570 nm at 24 h, 48 h and 72 h. At every time point such as 24 h, 48 h and 72 h, 1×10^4 cells were seeded without the peptide in triplicate in each plate for a given treatment of peptide. This was used as control cytotoxicity levels to calculate the percent cell cytotoxicity of every peptide treatment. […] All the experiments were carried out in triplicates and repeated three times."}, "[7]": {"test_system": "CaSki cervix cancer cell line", "conditions": "CaSki cells, compared with MB30, MTT", "experimental": "as §1\nAll cell lines were grown under standard conditions in humidified 37° C. incubator in 5% CO2 as described earlier (Garg et al., 2009; Kanojia et al., 2010).\nas §2"}}, "note": "No end group written: not given here.", "data": [{"molecule": "GQVWEATATVNAIRGSVTPAVSQFNARTAD [MB30]", "values": [{"measurement": "cytotoxicity levels (in words)", "setting": "[1]", "result": "higher cytotoxicity levels than the other peptide"}, {"measurement": "cytotoxicity (in words)", "setting": "[2]", "result": "better cytotoxicity in comparison to the full length protein MPT-63"}, {"measurement": "cytotoxicity (in words)", "setting": "[3]", "result": "better cytotoxicity in comparison to the full length protein MPT-63"}, {"measurement": "cytotoxicity (in words)", "setting": "[4]", "result": "better cytotoxicity in comparison to the full length protein MPT-63"}]}, {"molecule": "TAGIKLTVPIEKFPVTTQTFVVG [TG23]", "values": [{"measurement": "cytotoxicity levels (in words)", "setting": "[1]", "result": "higher cytotoxicity levels than the other peptide"}, {"measurement": "cytotoxicity (in words)", "setting": "[5]", "result": "less cytotoxicity"}, {"measurement": "cytotoxicity (in words)", "setting": "[6]", "result": "less cytotoxicity"}, {"measurement": "cytotoxicity (in words)", "setting": "[7]", "result": "less cytotoxicity"}]}, {"molecule": "NHFTLKCPKTALTEPPTLAY [TG20]", "values": [{"measurement": "cytotoxicity (in words)", "setting": "[5]", "result": "less cytotoxicity"}, {"measurement": "cytotoxicity (in words)", "setting": "[6]", "result": "less cytotoxicity"}, {"measurement": "cytotoxicity (in words)", "setting": "[7]", "result": "less cytotoxicity"}]}, {"molecule": "B1", "values": [{"measurement": "cytotoxicity (in words)", "setting": "[2]", "result": "shown cytotoxicity"}, {"measurement": "cytotoxicity (in words)", "setting": "[3]", "result": "shown cytotoxicity"}, {"measurement": "cytotoxicity (in words)", "setting": "[4]", "result": "shown cytotoxicity"}]}]}
